Results on eleven molecules are retold here after patent publication US20240116985A1, “STAPLED PEPTIDES AND METHODS THEREOF” (priority 2020, published 2024).

Molecules are shown by their SMILES. ≈ marks a conversion by molar mass, not a printed value. Read-outs that look alike come from different tables or passages of the source.

The nature of one series: Solubility in PBS. In kind it is physicochemical. In a few lines: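 PBS sample ultracentrifuged; supernatant run on HPLC vs. 50 μM peptide in DMSO standard. Solubility = (PBS peak area / DMSO peak area) × 50 uM.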
For series [1], the target named is T1, full-length beta-Catenin (Uniprot ID P35222) (Homo sapiens, UniProt P35222).
T1 construct: 10 nM full-length beta-Catenin (Uniprot ID P35222)
T1 sequence (P35222 1-781): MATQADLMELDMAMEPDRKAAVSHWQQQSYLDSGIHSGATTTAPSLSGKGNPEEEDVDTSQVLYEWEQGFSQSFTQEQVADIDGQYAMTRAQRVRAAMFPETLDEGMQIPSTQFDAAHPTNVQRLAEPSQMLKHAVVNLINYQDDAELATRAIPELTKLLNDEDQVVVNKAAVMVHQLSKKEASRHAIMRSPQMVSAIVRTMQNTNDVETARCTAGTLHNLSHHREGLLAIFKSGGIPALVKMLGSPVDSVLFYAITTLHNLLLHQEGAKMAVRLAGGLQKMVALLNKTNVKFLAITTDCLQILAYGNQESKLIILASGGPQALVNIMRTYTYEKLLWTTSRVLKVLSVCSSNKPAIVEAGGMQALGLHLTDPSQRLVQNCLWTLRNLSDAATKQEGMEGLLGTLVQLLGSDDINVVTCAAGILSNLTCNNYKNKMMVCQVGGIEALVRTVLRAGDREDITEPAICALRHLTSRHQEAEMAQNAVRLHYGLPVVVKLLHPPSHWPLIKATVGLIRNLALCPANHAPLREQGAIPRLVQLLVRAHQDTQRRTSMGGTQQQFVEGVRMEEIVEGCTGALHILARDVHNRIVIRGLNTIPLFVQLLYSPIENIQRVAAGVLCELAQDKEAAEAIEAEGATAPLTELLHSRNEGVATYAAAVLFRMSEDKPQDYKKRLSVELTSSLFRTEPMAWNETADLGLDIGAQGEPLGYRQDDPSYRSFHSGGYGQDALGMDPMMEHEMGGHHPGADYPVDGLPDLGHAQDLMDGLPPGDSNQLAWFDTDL
The series can be described thus: Fluorescence polarization IC50 (beta-catenin / 5FAM-TCF4 10-53 competition). In kind it is binding. (In fluorescence polarisation assays a small probe gives low polarisation when free and higher when bound to something large.)

The nature of another series: CHI Log D procedure. In kind it is physicochemical. As to conditions: pH 7.4.
The mark [2] stands for this setting: fluorescence polarization, beta-catenin, read-out: FP EC50.

Regarding `CCN(CC(=O)O)C[C@@H]1NC(=O)[C@H](CC(=O)O)NC(=O)C2(CCCC=CCCCOC(=O)N3CC[C@@](C(=O)N[C@@H](Cc4ccsc4)C(=O)N[C@@H](Cc4csc5ccccc45)C(=O)N[C@@H](CCC(N)=O)C(N)=O)(C3)NC(=O)[C@H](Cc3ccccc3)NC(=O)[C@H](Cc3ccccc3)NC(=O)[C@H](C)NC(=O)[C@H](C)NC1=O)CCCC=CC[C@]1(CCCN1C(C)=O)C(=O)N[C@@H](CC(=O)O)C(=O)N[C@@H](CC(C)(C)C)C(=O)N2` (stereo partly drawn) [I-971, Ac-PL3-Asp-Npg-B5-Asp-EtGA-Ala-Ala-Phe-Phe-PyrS2-3Thi-BztA-Gln-NH2], the Solubility (usually the concentration that dissolves in the medium under given conditions) in the series “Solubility in PBS” came to 10 µM (≈ 20.1 µg/mL). For the same molecule, the IC50 in series [1] (setting [2]) came to 1610 nM; in series [1] (read-out: beta-Catenin FP IC50), 1840 nM. In addition, the “CHI Log D” value in “CHI Log D procedure” is recorded as 1.939.
On the same counts, the results for `CCN(CC(=O)O)C[C@@H]1NC(=O)[C@H](CC(=O)O)NC(=O)C2(CCCC=CCCCOC(=O)N3CC[C@@](C(=O)N[C@@H](Cc4ccsc4)C(=O)N[C@@H](Cc4csc5ccccc45)C(=O)N[C@@H](CCC(N)=O)C(N)=O)(C3)NC(=O)[C@H](CC(C)C)NC(=O)[C@H](Cc3ccccc3)NC(=O)[C@H](C)NC(=O)[C@H](C)NC1=O)CCCC=CC[C@]1(CCCN1C(C)=O)C(=O)N[C@@H](CC(=O)O)C(=O)N[C@@H](CC(C)(C)C)C(=O)N2` (stereo partly drawn) [I-972, Ac-PL3-Asp-Npg-B5-Asp-EtGA-Ala-Ala-Phe-Leu-PyrS2-3Thi-BztA-Gln-NH2] are 30 µM (≈ 59.2 µg/mL), 1820 nM, 1820 nM and 1.879.
The like results for `CCN(CC(=O)O)C[C@@H]1NC(=O)[C@H](CC(=O)O)NC(=O)C2(CCCC=CCCCOC(=O)N3CC[C@@](C(=O)N[C@@H](Cc4ccsc4)C(=O)N[C@@H](Cc4csc5ccccc45)C(=O)N[C@@H](CO)C(N)=O)(C3)NC(=O)[C@H](CO)NC(=O)[C@H](Cc3ccccc3)NC(=O)[C@H](C)NC(=O)[C@H](C)NC1=O)CCCC=CC[C@]1(CCCN1C(C)=O)C(=O)N[C@@H](CC(=O)O)C(=O)N[C@@H](CC(C)(C)C)C(=O)N2` (stereo partly drawn) [I-974, Ac-PL3-Asp-Npg-B5-Asp-EtGA-Ala-Ala-Phe-Ser-PyrS2-3Thi-BztA-Ser-NH2] were, in that order, 10 µM (≈ 19.1 µg/mL), 1780 nM, 1780 nM and 1.857.
On the same counts, the results for `CCN(CC(=O)O)C[C@@H]1NC(=O)[C@H](CC(=O)O)NC(=O)C2(CCCC=CCCCOC(=O)N3CC[C@@](C(=O)N[C@@H](Cc4ccsc4)C(=O)N[C@@H](Cc4csc5ccccc45)C(=O)N[C@@H](CO)C(N)=O)(C3)NC(=O)[C@H](CO)NC(=O)[C@H](Cc3ccccc3)NC(=O)[C@H](C)NC(=O)[C@H](C)NC1=O)CCCC=CC[C@]1(CCCN1C(C)=O)C(=O)N[C@@H](CC(=O)O)C(=O)N[C@@H](CC(C)(C)C)C(=O)N2` (stereo partly drawn) [I-975, Ac-PL3-Asp-Npg-B5-Asp-EtGA-Ala-Ala-Phe-Ser-PyrS2-3Thi-BztA-Ser-NH2] are 46 µM (≈ 87.7 µg/mL), 1710 nM, 2240 nM and 1.952.
As to `CC(=O)N1CCC[C@]12CC=CCCCC1(CCCC=CCCCOC(=O)N3CC[C@@](C(=O)N[C@@H](Cc4ccsc4)C(=O)N[C@@H](Cc4csc5ccccc45)C(=O)N[C@@H](CCC(N)=O)C(N)=O)(C3)NC(=O)[C@H](CC(N)=O)NC(=O)[C@H](Cc3ccccc3)NC(=O)[C@H](C)NC(=O)[C@H](C)NC(=O)[C@H](Cc3cccc(C(=O)O)c3)NC(=O)[C@H](CC(=O)O)NC1=O)NC(=O)[C@H](CC(C)(C)C)NC(=O)[C@H](CC(=O)O)NC2=O` (stereo partly drawn) [I-976, Ac-PL3-Asp-Npg-B5-Asp-3COOHF-Ala-Ala-Phe-Asn-PyrS2-3Thi-BztA-Gln-NH2], the “Solubility” value in the series “Solubility in PBS” worked out at 50 µM (≈ 99.7 µg/mL). Also, the IC50 in series [1] (setting [2]) and in series [1] (read-out: beta-Catenin FP IC50) was 399 nM each time. For the same molecule, the “CHI Log D” value in the series “CHI Log D procedure” is 1.78.
Consider `CC(=O)N1CCC[C@]12CC=CCCCC1(CCCC=CCCCOC(=O)N3CC[C@@](C(=O)N[C@@H](Cc4ccsc4)C(=O)N[C@@H](Cc4csc5ccccc45)C(=O)N[C@@H](CCC(N)=O)C(N)=O)(C3)NC(=O)[C@H](CC(N)=O)NC(=O)[C@H](Cc3ccccc3)NC(=O)[C@H](C)NC(=O)[C@H](C)NC(=O)[C@H](Cc3cccc(C(=O)O)c3)NC(=O)[C@H](CC(=O)O)NC1=O)NC(=O)[C@H](CC(C)(C)C)NC(=O)[C@H](CC(=O)O)NC2=O` (stereo partly drawn) [I-977, Ac-PL3-Asp-Npg-B5-Asp-3COOHF-Ala-Ala-Phe-Asn-PyrS2-3Thi-BztA-Gln-NH2], for which the “Solubility” value in the series “Solubility in PBS” was found to be 46 µM (≈ 91.7 µg/mL). Besides, the IC50 in series [1] (setting [2]) is 367 nM; in series [1] (read-out: beta-Catenin FP IC50), 875 nM. For the same molecule, in “CHI Log D procedure”, the “CHI Log D” value is listed as 1.87.
On the same counts, the results for `CC(=O)N1CCC[C@]12CC=CCCCC1(CCCC=CCCCOC(=O)N3CC[C@@](C(=O)N[C@@H](Cc4ccsc4)C(=O)N[C@@H](Cc4csc5ccccc45)C(=O)N[C@@H](CCC(N)=O)C(N)=O)(C3)NC(=O)[C@H]([C@@H](C)O)NC(=O)[C@H](Cc3ccccc3)NC(=O)[C@H](C)NC(=O)[C@H](C)NC(=O)[C@H](Cc3cccc(C(=O)O)c3)NC(=O)[C@H](CC(=O)O)NC1=O)NC(=O)[C@H](CC(C)(C)C)NC(=O)[C@H](CC(=O)O)NC2=O` (stereo partly drawn) [I-980, Ac-PL3-Asp-Npg-B5-Asp-3COOHF-Ala-Ala-Phe-Thr-PyrS2-3Thi-BztA-Gln-NH2] are 19 µM (≈ 37.6 µg/mL), 221 nM, 221 nM and 1.695.
Consider `CC(=O)N1CCC[C@]12CC=CCCCC1(CCCC=CCCCOC(=O)N3CC[C@@](C(=O)N[C@@H](Cc4ccsc4)C(=O)N[C@@H](Cc4csc5ccccc45)C(=O)N[C@@H](CCC(N)=O)C(N)=O)(C3)NC(=O)[C@H]([C@@H](C)O)NC(=O)[C@H](Cc3ccccc3)NC(=O)[C@H](C)NC(=O)[C@H](C)NC(=O)[C@H](Cc3cccc(C(=O)O)c3)NC(=O)[C@H](CC(=O)O)NC1=O)NC(=O)[C@H](CC(C)(C)C)NC(=O)[C@H](CC(=O)O)NC2=O` (stereo partly drawn) [I-981, Ac-PL3-Asp-Npg-B5-Asp-3COOHF-Ala-Ala-Phe-Thr-PyrS2-3Thi-BztA-Gln-NH2], for which the “Solubility” value in “Solubility in PBS” was 45 µM (≈ 89.2 µg/mL). The results for the IC50 in series [1] (setting [2]) and in series [1] (read-out: beta-Catenin FP IC50) were 199 nM and 374 nM, respectively. Moreover, in the series “CHI Log D procedure”, the “CHI Log D” value is 1.761.
Turning to `CC(=O)N1CCC[C@]12CC=CCCCC1(CCCC=CCCCOC(=O)N3CC[C@@](C(=O)N[C@@H](Cc4ccsc4)C(=O)N[C@@H](Cc4csc5ccccc45)C(=O)N[C@@H](CO)C(N)=O)(C3)NC(=O)[C@H](Cc3ccccc3)NC(=O)[C@H](Cc3ccccc3)NC(=O)[C@H](C)NC(=O)[C@H](C)NC(=O)[C@H](Cc3cccc(C(=O)O)c3)NC(=O)[C@H](CC(=O)O)NC1=O)NC(=O)[C@H](CC(C)(C)C)NC(=O)[C@H](CC(=O)O)NC2=O` (stereo partly drawn) [I-982, Ac-PL3-Asp-Npg-B5-Asp-3COOHF-Ala-Ala-Phe-Phe-PyrS2-3Thi-BztA-Ser-NH2], in “Solubility in PBS”, the “Solubility” value was 16 µM (≈ 31.8 µg/mL). The IC50 in series [1] (setting [2]) and in series [1] (read-out: beta-Catenin FP IC50) was 190 nM throughout. The “CHI Log D” value in the series “CHI Log D procedure” is on record as 1.853.
For the molecule `CC(=O)N1CCC[C@]12CC=CCCCC1(CCCC=CCCCOC(=O)N3CC[C@@](C(=O)N[C@@H](Cc4ccsc4)C(=O)N[C@@H](Cc4csc5ccccc45)C(=O)N[C@@H](CO)C(N)=O)(C3)NC(=O)[C@H](Cc3ccccc3)NC(=O)[C@H](Cc3ccccc3)NC(=O)[C@H](C)NC(=O)[C@H](C)NC(=O)[C@H](Cc3cccc(C(=O)O)c3)NC(=O)[C@H](CC(=O)O)NC1=O)NC(=O)[C@H](CC(C)(C)C)NC(=O)[C@H](CC(=O)O)NC2=O` (stereo partly drawn) [I-983, Ac-PL3-Asp-Npg-B5-Asp-3COOHF-Ala-Ala-Phe-Phe-PyrS2-3Thi-BztA-Ser-NH2], in “Solubility in PBS”, the “Solubility” value worked out at 10 µM (≈ 19.9 µg/mL). Moreover, the IC50 in series [1] (setting [2]) and in series [1] (read-out: beta-Catenin FP IC50) was 118 nM in each case. For the same molecule, the “CHI Log D” value in the series “CHI Log D procedure” came to 1.919.
On to `CC(=O)N1CCC[C@]12CC=CCCCC1(CCCC=CCCCOC(=O)N3CC[C@@](C(=O)N[C@@H](Cc4ccsc4)C(=O)N[C@@H](Cc4csc5ccccc45)C(=O)N[C@@H](CO)C(N)=O)(C3)NC(=O)[C@H](CO)NC(=O)[C@H](Cc3ccccc3)NC(=O)[C@H](C)NC(=O)[C@H](C)NC(=O)[C@H](Cc3cccc(C(=O)O)c3)NC(=O)[C@H](CC(=O)O)NC1=O)NC(=O)[C@H](CC(C)(C)C)NC(=O)[C@H](CC(=O)O)NC2=O` (stereo partly drawn) [I-984, Ac-PL3-Asp-Npg-B5-Asp-3COOHF-Ala-Ala-Phe-Ser-PyrS2-3Thi-BztA-Ser-NH2], for which the “Solubility” value in the series “Solubility in PBS” is 45 µM (≈ 86.7 µg/mL). In addition, the IC50 in series [1] (setting [2]) and in series [1] (read-out: beta-Catenin FP IC50) was 179 nM each time. In the series “CHI Log D procedure”, the “CHI Log D” value came out at 1.8.
